# Experiments:
# [1] = system: human peripheral blood mononuclear cells; assay: Mitogenic assay: pokeweed mitogen stimulated proliferation ([3H]-thymidine incorporation) of human peripheral blood mononuclear cells; assay type: cell-based
# Method: Cells: Human peripheral blood mononuclear cells were isolated from samples of blood (in 0.01M sodium citrate) using 50 mL LEUKOPREP® separation tubes (Becton Dickenson, Lincoln Park, N.J.). Tubes were centrifuged at room temperature for 15 minutes at 2400 rpm in a swinging bucket rotor. The cells recovered at interface were washed in Dulbecco's PBS and resuspended in RPMI 1640 containing 10% FCS, 5×10^-5 M 2-mercaptoethanol, 2 mM L-glutamine, 1% penicillin-streptomycin and 1 mM HEPES buffer (CM). Mitogenic Assay: Human peripheral blood mononuclear cells (2×10^5) were incubated with pokeweed mitogen at a final concentration of 0.1 μg/mL or Concanavalin A at a final concentration of 1.0 μg/mL in 96 well flat-bottomed microtiter plates (Falcon 3072, Becton Dickinson). Compounds to be tested were added at the initiation of culture. The final volume was 0.2 mL. The cultures were incubated in 95% humidified air/5% CO2 at 37° C. for 2 days (Concanavalin A) or 6 days (Pokeweed mitogen). Eighteen hours before termination of the cultures, each well was pulsed with 1 μCi of [^3 H]-thymidine. Cells from individual wells were harvested onto glass fiber filter paper with an automated multi-sample harvester. Filters were placed in scintillation fluid (Universal Cocktail, ICN Radiochemicals, Irvin, Calif.) and the [^3 H]-thymidine incorporation, in counts per minute (cpm), was measured in a Packard Tri-carb 4640 Scintillation Counter. Peripheral blood mononuclear cells from three individuals were cultured with an optimal concentration of pokeweed mitogen, a T-dependent B-cell mitogen, in the presence of increasing concentrations of (Z)-4',5'-didehydro-5'-deoxy-5'-fluoroadenosine. […] Similar studies were performed culturing human peripheral blood cells with an optimal concentration of Concanavalin A, a potent T-cell mitogen.
# [2] = system: human peripheral blood mononuclear cells; assay: Mitogenic assay: Concanavalin A stimulated proliferation ([3H]-thymidine incorporation) of human peripheral blood mononuclear cells; assay type: cell-based
# Method: Cells: Human peripheral blood mononuclear cells were isolated from samples of blood (in 0.01M sodium citrate) using 50 mL LEUKOPREP® separation tubes (Becton Dickenson, Lincoln Park, N.J.). Tubes were centrifuged at room temperature for 15 minutes at 2400 rpm in a swinging bucket rotor. The cells recovered at interface were washed in Dulbecco's PBS and resuspended in RPMI 1640 containing 10% FCS, 5×10^-5 M 2-mercaptoethanol, 2 mM L-glutamine, 1% penicillin-streptomycin and 1 mM HEPES buffer (CM).
# (§1) Mitogenic Assay: Human peripheral blood mononuclear cells (2×10^5) were incubated with pokeweed mitogen at a final concentration of 0.1 μg/mL or Concanavalin A at a final concentration of 1.0 μg/mL in 96 well flat-bottomed microtiter plates (Falcon 3072, Becton Dickinson). Compounds to be tested were added at the initiation of culture. The final volume was 0.2 mL. The cultures were incubated in 95% humidified air/5% CO2 at 37° C. for 2 days (Concanavalin A) or 6 days (Pokeweed mitogen). Eighteen hours before termination of the cultures, each well was pulsed with 1 μCi of [^3 H]-thymidine. Cells from individual wells were harvested onto glass fiber filter paper with an automated multi-sample harvester. Filters were placed in scintillation fluid (Universal Cocktail, ICN Radiochemicals, Irvin, Calif.) and the [^3 H]-thymidine incorporation, in counts per minute (cpm), was measured in a Packard Tri-carb 4640 Scintillation Counter.
# Peripheral blood mononuclear cells from three individuals were cultured with an optimal concentration of pokeweed mitogen, a T-dependent B-cell mitogen, in the presence of increasing concentrations of (Z)-4',5'-didehydro-5'-deoxy-5'-fluoroadenosine. […] Similar studies were performed culturing human peripheral blood cells with an optimal concentration of Concanavalin A, a potent T-cell mitogen.
# [3] = system: murine splenic mononuclear cells; assay: Mitogenic assay: Concanavalin A stimulated proliferation ([3H]-thymidine incorporation) of murine splenic mononuclear cells; assay type: cell-based, CD-1 mice
# Excerpt: Cells: Spleens and/or lymph nodes from a total of 16 individual outbred CD-1 mice (Charles River, Wilmington, Mass.) were asceptically removed, pooled, and single cell suspensions were made in Hank's Balanced Salt Solution (HBSS, calcium and magnesium free). Erythrocytes were lysed by treatment with Tris-buffered ammonium chloride (0.155M NH4 Cl, 0.0165M Tris, pH 7.2). Mononuclear cells were washed with HBSS and resuspended in Dulbecco's PBS and resuspended in RPMI 1640 containing 10% FCS, 5×10^-5 M 2mercaptoethanol, 2 mM L-glutamine, 1% penicillin-streptomycin and 1 mM HEPES buffer (CM).
# as §1, with “Murine splenic” for “Human peripheral blood”, “(5×10^5)” for “(2×10^5)”, “with” for “with pokeweed mitogen at a final concentration of 0.1 μg/mL or”, “2.5” for “1.0”, “plates.” for “plates (Falcon 3072, Becton Dickinson).”, “days.” for “days (Concanavalin A) or 6 days (Pokeweed mitogen).”
# [4] = system: anti-ovalbumin IgG; assay: In vivo immune response to T-dependent antigen (ovalbumin): serum anti-ovalbumin IgG by ELISA; parameters: species or system mice; details: for Anti-Ovalbumin Titer ± S.D.: ten days after immunization, dilution giving absorbance 0.750 at 405 nm
# Method: In vivo immune response: Mice were radomly distributed by weight into 3 groups of ten. Dosing i.p. with Dulbecco's phosphate buffered saline (PBS) or (Z)-4',5'-didehydro-5'-deoxy-5'-fluoroadenosine (at 5 or 10 mg/Kg) dissolved in PBS was begun one day prior to immunization. Ovalbumin (Sigma, St. Louis, Mo.) at 2 mg/mL in PBS was emulsified in an equal volume of Freunds complete adjuvant and 50 μL, containing 50 μg ovalbumin, was injected into each footpad. Animals were dosed daily. Ten days after the immunization, the animals were bled for serum and sacrificed. Serum levels of anti-ovalbumin IgG were quantitated in an ELISA. Specifically, 100 μL of a 1% ovalbumin solution in Tris-bufferedsaline (TBS) (20 mM Tris, 500 mM NaCl, pH 7.5) was added to individual wells of a 96 well ELISA microtiter plate. The plate was incubated for 2 hours at room temperature and the wells were washed 3 times with TBS containing 0.05% Tween 20 (TBS-Tween). Dilutions of the serum samples in TBS-Tween (100 μL) were added to the wells, which were then incubated for one hour at room temperature. The plate was again washed 3 times with TBS-Tween. The wells were then incubated with 100 μL of a 1:1000 dilution of rabbit anti-mouse IgG labled with horse radish peroxidase (Bio-Rad, Richmond, Calif.) for one hour at room temperature. After washing 3 times with TBS-Tween, the wells were incubated with 100 μL of Bio-Rad peroxidase substrate [2,2'-azino-di-(3-ethyl-benzthiazoline sulfonate) in cocodylic acid buffer and hydrogen peroxide]. Absorbance at 405 nm was measured and the antibody titer was calculated from the linear regression curve of each serum sample and is reported as the log of the dilution which gave an absorbance reading of 0.750, unless otherwise indicated.
compound,measurement,setting,value
"Nc1ncnc2c1ncn2[C@@H]1O/C(=C\F)[C@@H](O)[C@H]1O [Compound A, (Z)-4',5'-didehydro-5'-deoxy-5'-fluoroadenosine]",activity at 1 µM,"[1]; Homo sapiens, PBMC, 144 h, 1.0 μM, pokeweed mitogen 0.1 μg/mL, 6 days, read-out: Proliferation (% of Control) Pokeweed mitogen",50.9%
same,activity at 10 µM,"[1]; Homo sapiens, PBMC, 144 h, 10.0 μM, pokeweed mitogen 0.1 μg/mL, 6 days, read-out: Proliferation (% of Control) Pokeweed mitogen",19.7%
same,activity at 0.001 µM,"[1]; Homo sapiens, PBMC, 144 h, .001 μM, pokeweed mitogen 0.1 μg/mL, 6 days, read-out: Proliferation (% of Control) Pokeweed mitogen",97.4%
same,activity at 0.01 µM,"[1]; Homo sapiens, PBMC, 144 h, .01 μM, pokeweed mitogen 0.1 μg/mL, 6 days, read-out: Proliferation (% of Control) Pokeweed mitogen",103%
same,activity at 0.1 µM,"[1]; Homo sapiens, PBMC, 144 h, .1 μM, pokeweed mitogen 0.1 μg/mL, 6 days, read-out: Proliferation (% of Control) Pokeweed mitogen",72.1%
same,"inhibition of pokeweed stimulated proliferation, in words",[1]; increasing concentrations,dose dependent inhibition
same,activity at 1 µM,"[2]; Homo sapiens, PBMC, 48 h, 1.0 μM, Concanavalin A 1.0 μg/mL, 2 days, read-out: Proliferation (% of Control) Concanavalin A mitogen",15.8%
same,activity at 10 µM,"[2]; Homo sapiens, PBMC, 48 h, 10.0 μM, Concanavalin A 1.0 μg/mL, 2 days, read-out: Proliferation (% of Control) Concanavalin A mitogen",3.7%
same,activity at 0.001 µM,"[2]; Homo sapiens, PBMC, 48 h, .001 μM, Concanavalin A 1.0 μg/mL, 2 days, read-out: Proliferation (% of Control) Concanavalin A mitogen",100%
same,activity at 0.01 µM,"[2]; Homo sapiens, PBMC, 48 h, .01 μM, Concanavalin A 1.0 μg/mL, 2 days, read-out: Proliferation (% of Control) Concanavalin A mitogen",101%
same,activity at 0.1 µM,"[2]; Homo sapiens, PBMC, 48 h, .1 μM, Concanavalin A 1.0 μg/mL, 2 days, read-out: Proliferation (% of Control) Concanavalin A mitogen",66.4%
same,IC50,"[2]; PBMC, 48 h, human cells, Concanavalin A 1.0 μg/mL, 2 days, read-out: IC50, inhibition of Concanavalin A stimulated proliferation",250 nM
same,"inhibition of Concanavalin A stimulated proliferation, in words","[2]; human cells, increasing concentrations",dose dependent inhibition
same,activity at 1 µM,"[3]; Mus musculus, 48 h, 1.0 μM, Concanavalin A 2.5 μg/mL, 2 days, read-out: Proliferation (% of Control) Concanavalin A mitogen",28.6%
same,activity at 10 µM,"[3]; Mus musculus, 48 h, 10.0 μM, Concanavalin A 2.5 μg/mL, 2 days, read-out: Proliferation (% of Control) Concanavalin A mitogen",17.9%
same,activity at 0.001 µM,"[3]; Mus musculus, 48 h, .001 μM, Concanavalin A 2.5 μg/mL, 2 days, read-out: Proliferation (% of Control) Concanavalin A mitogen",96.3%
same,activity at 0.01 µM,"[3]; Mus musculus, 48 h, .01 μM, Concanavalin A 2.5 μg/mL, 2 days, read-out: Proliferation (% of Control) Concanavalin A mitogen",86%
same,activity at 0.1 µM,"[3]; Mus musculus, 48 h, .1 μM, Concanavalin A 2.5 μg/mL, 2 days, read-out: Proliferation (% of Control) Concanavalin A mitogen",51.8%
same,IC50,"[3]; Mus musculus, 48 h, murine cells, Concanavalin A 2.5 μg/mL, 2 days, read-out: IC50, inhibition of Concanavalin A stimulated proliferation",190 nM
same,"inhibition of Concanavalin A stimulated proliferation, in words","[3]; murine cells, increasing concentrations",dose dependent inhibition
same,Anti-Ovalbumin Titer ± S.D.,[4]; 5 mg/Kg i.p. daily,550 ± 272
same,Anti-Ovalbumin Titer ± S.D.,[4]; 10 mg/Kg i.p. daily,375 ± 124
same,serum levels of anti-ovalbumin IgG compared to Controls,"[4]; 5 or 10 mg/Kg i.p. daily, in words",significantly reduced

# Reference: patent publication US5470837A, “5'-vinylhalo-aristeromycin/adenosine analogs and immunosuppressants” (Merrell Dow Pharmaceuticals Inc., priority 1994, dated 1995)
